Reference: patent US20060210658A1, “Processes for obtaining (-)-guaiol and the use thereof” (priority 2000, published 2006)

Legend:
Assay in all cases: Antimicrobial action test (MIC)
Format in all cases: cell-based
[1] = system: Porphyromonas gingivalis
Text: (§1) Examples (Table 1): (MIC—minimum inhibitory concentration)

[2] = system: Trichophyton rubrum
Text: as §1
(§2) Examples: (MIC=minimum inhibitory concentration)

[3] = system: Epidermophyton floccosum
Text: as §1, §2

[4] = system: Staphylococcus sobrinus
Text: as §1, §2

[5] = system: Malassezia furfur
Text: as §1, §2

[6] = system: Selenomonas artemidis
Text: as §1, §2

[7] = system: Staphylococcus mutans
Text: as §1, §2

[8] = system: Staphylococcus aureus
Text: as §1, §2

[9] = system: Trichophyton schoenleinii
Text: as §1, §2

[10] = system: Microsporum gypseum
Text: as §1, §2

[11] = system: Microsporum canis
Text: as §1, §2

[12] = system: Trichophyton mentagrophytes
Text: as §1, §2

Measured: MIC (minimum inhibitory concentration)

cyclodextrin [pure cyclodextrin]
>10000 ppm: all assays above
